This is an account of results in PubChem BioAssay (NCI).

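Five compound concentrations were applied to cells in 96-well plates for 48 hours; endpoints were derived by simple linear interpolation of the resulting dose-response curve. GI50 = concentration required for 50% inhibition of growth. At the TGI there is no net growth.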 A value given as a limit tells only on which side of the number the result lay.

Holding throughout (assay): NCI tumour cell line growth inhibition, 48 h
For test [1], the system named is IGROV1 ovarian.
Test [2] relates to KM12 colon.
For test [3], the system named is XF 498 CNS.
Test [4] concerns OVCAR-4 ovarian.
For test [5], the system named is SF-539 CNS.
The subject of test [6] is HL-60(TB) leukemia.
In test [7] the test system is OVCAR-3 ovarian.
In test [8] the test system is HT29 colon.
Test [9] deals with SR leukemia.
The test system of test [10] is UACC-257 melanoma.
For test [11], the system named is RXF 393 renal.
Test [12] has as its system SNB-75 CNS.
Test [13] deals with MALME-3M melanoma.
Test [14] relates to KM20L2 colon.
In test [15] the test system is HOP-92 NSCLC.
Test [16] relates to NCI-H226 lung.
Test [17] has as its system HCT-15 colon.

As to `O=C(NN1C(=O)C(Cl)C1c1ccc([N+](=O)[O-])cc1)c1ccccc1O` (configuration not stated), the TGI in [1], in test [2], in test [3], in [4], in test [5] and in test [6] was more than 100 µM in each case. In addition, the TGI in test [7], in [8], in test [9], in test [10], in test [11] and in [12] was more than 100 µM in each case. For the same compound, the TGI in [13], in test [14] and in [15] was more than 100 µM in each case.
For the compound `Cn1nc2ccc3nccc(NCCNCCCl)c3c2n1`, the TGI in [1], in test [2], in test [3], in [4], in [5] and in test [6] was more than 100 µM throughout. Besides, the TGI in test [16], in [7], in test [8], in test [9], in [11] and in test [12] was more than 100 µM in each case. The TGI in test [13], in [17], in [14] and in test [15] was more than 100 µM in each case.
With `CN(C)S(=O)(=O)c1cccc(-c2nc3sc4c(c3c(=O)[nH]2)CCCC4)c1`, the GI50 in test [16] is 2.38 µM; in test [10], more than 100 µM; in [17], more than 100 µM. In addition, the TGI in [16], in test [10] and in test [17] was more than 100 µM each time.
